The source of these data is ChEMBL document CHEMBL1135346, “2,5-Pyridinedicarboxylic acid derivatives as non-nucleosidic reverse transcriptase inhibitors of hepatitis B virus” (Bioorg Med Chem Lett, 2002).

Assay [1] is described as follows: Inhibitory activity against Hepatitis B virus reverse transcriptase (HBV-RT) at 1 ug/mL.
Assay [2] can be described thus: Inhibitory concentration against Hepatitis B virus reverse transcriptase (HBV-RT).
Assay [3] in a line: Inhibitory activity against Hepatitis B virus reverse transcriptase (HBV-RT) at 0.1 ug/mL.
A short description of assay [4]: Inhibitory activity against Hepatitis B virus reverse transcriptase (HBV-RT) at 0.01 ug/mL.
Assay [5] can be described thus: Inhibitory concentration against Hepatitis B virus-Reverse-transcriptase (HBV-RT).

In brackets after ≈: the same amount, converted by molar mass.

As for `CC(C)NC(=O)c1ccc(C(=O)N2CCN(c3ncccc3NC(C)C)CC2)nc1`, the inhibition in assay [1] worked out at 65%; in assay [3] it was 51%; in assay [4], 23%. The molecule also returned an IC50 in assay [2] of 0.149 µg/mL (≈ 0.363 µM).

Consider `CC(C)Nc1cccnc1N1CCN(C(=O)c2ccc(C(=O)Nc3ccccn3)cn2)CC1`, for which the inhibition in assay [1] was 74%; in assay [3] it was 55%; in assay [4] it was 26%. This molecule gave an IC50 in assay [2] of 0.085 µg/mL (≈ 0.191 µM).

Molecule `CC(C)Nc1cccnc1N1CCN(C(=O)c2ccc(C(=O)NC(C)(C)CO)cn2)CC1` showed a half-maximal inhibitory concentration (IC50) in assay [5] of 0.001 µg/mL (≈ 0.00227 µM). Moreover, the inhibition amounted to 80% in assay [1], 65% in assay [3] and 62% in assay [4].

Turning to `CC(C)CNc1cccnc1N1CCN(C(=O)c2ccc(C(=O)NC(C)(C)CO)cn2)CC1`, the inhibition stood at 90% in assay [1], 71% in assay [3] and 63% in assay [4]. The molecule further showed a half-inhibitory concentration (IC50) in assay [2] of 0.001 µg/mL (≈ 0.0022 µM).

Take `COC(CNC(=O)c1ccc(C(=O)N2CCN(c3ncccc3NC(C)C)CC2)nc1)OC`: the inhibition worked out at 87% in assay [1], 65% in assay [3] and 57% in assay [4]. This molecule came in with a half-inhibitory concentration (IC50) in assay [2] of 0.005 µg/mL (≈ 0.011 µM).

Consider `CC(C)Nc1cccnc1N1CCN(C(=O)c2ccc(C(=O)NCCN3CCOCC3)cn2)CC1`, for which the inhibition stood at 70% in assay [1], 60% in assay [3] and 49% in assay [4]. The molecule further registered a 50% inhibitory concentration (IC50) in assay [2] of 0.012 µg/mL (≈ 0.0249 µM).

`COCCNC(=O)c1ccc(C(=O)N2CCN(c3ncccc3NC(C)C)CC2)nc1`: the values for the inhibition in assay [1], in assay [3] and in assay [4] were 80%, 68% and 60%, respectively. For the same molecule, in assay [2], the half-inhibitory concentration (IC50) was found to be 0.001 µg/mL (≈ 0.00234 µM).

Consider `CC(C)Nc1cccnc1N1CCN(C(=O)c2ccc(C(=O)NCCCn3ccnc3)cn2)CC1`, for which the inhibition in assay [1] was 89%; in assay [3] it was 72%; in assay [4], 65%. This molecule also returned an IC50 in assay [2] of 0.001 µg/mL (≈ 0.0021 µM).

As to `CC(C)Nc1cccnc1N1CCN(C(=O)c2ccc(C(=O)NC3CC3)cn2)CC1`, the inhibition in assay [1] is 62%; in assay [3], 51%; in assay [4], 5%. This molecule also showed an IC50 in assay [2] of 0.237 µg/mL (≈ 0.58 µM).

With `CCNc1cccnc1N1CCN(C(=O)c2ccc(C(=O)NC(C)C)cn2)CC1`, the inhibition in assay [1] came to 85%; in assay [3], 67%; in assay [4], 54%. The IC50 in assay [2] was 0.006 µg/mL (≈ 0.0151 µM).

For the molecule `COCCCNC(=O)c1ccc(C(=O)N2CCN(c3ncccc3NC(C)C)CC2)nc1`, the inhibition turned out to be 63% in assay [1], 53% in assay [3] and 28% in assay [4]. Moreover, in assay [2], the concentration for half-maximal inhibition (IC50) was 0.13 µg/mL (≈ 0.295 µM).

As to `CC(C)CNC(=O)c1ccc(C(=O)N2CCN(c3ncccc3NC(C)C)CC2)nc1`, the figures for the inhibition in assay [1], in assay [3] and in assay [4] were 83%, 65% and 61%, respectively. In assay [2], the 50% inhibitory concentration (IC50) amounted to 0.002 µg/mL (≈ 0.00471 µM).

`CC(C)Nc1cccnc1N1CCN(C(=O)c2ccc(C(=O)NCc3ccccn3)cn2)CC1`: the results for the inhibition in assay [1], in assay [3] and in assay [4] were 77%, 62% and 53%, respectively. The molecule also showed an IC50 in assay [2] of 0.007 µg/mL (≈ 0.0152 µM).

In the case of `CC(C)CNc1cccnc1N1CCN(C(=O)c2ccc(C(=O)NCCCn3ccnc3)cn2)CC1`, the inhibition amounted to 88% in assay [1], 72% in assay [3] and 60% in assay [4]. Also, the IC50 in assay [2] was 0.002 µg/mL (≈ 0.00408 µM).

In the case of `CC(C)Nc1cccnc1N1CCN(C(=O)c2ccc(C(=O)NC(C)(C)C)cn2)CC1`, the inhibition in assay [1] came to 88%; in assay [3], 72%; in assay [4] it was 61%. This molecule showed an IC50 in assay [2] of 0.002 µg/mL (≈ 0.00471 µM).

Take `CC(C)CNc1cccnc1N1CCN(C(=O)c2ccc(C(=O)NCCO)cn2)CC1`: the values for the inhibition in assay [1], in assay [3] and in assay [4] were 86%, 60% and 54%, respectively. This molecule registered a concentration for half-maximal inhibition (IC50) in assay [2] of 0.009 µg/mL (≈ 0.0211 µM).

As for `CCNc1cccnc1N1CCN(C(=O)c2ccc(C(=O)NCCO)cn2)CC1`, the inhibition in assay [1] was found to be 84%; in assay [3], 69%; in assay [4] it was 52%. For the same molecule, in assay [2], the IC50 turned out to be 0.007 µg/mL (≈ 0.0176 µM).

With `Cc1ccn(NC(=O)c2ccc(C(=O)N3CCN(c4ncccc4NC(C)C)CC3)nc2)n1`, the inhibition in assay [1] came to 70%; in assay [3] it was 53%; in assay [4], 20%. The IC50 in assay [2] was 0.124 µg/mL (≈ 0.276 µM).

With `CC(C)Nc1cccnc1N1CCN(C(=O)c2ccc(C(=O)NCCCO)cn2)CC1`, the inhibition in assay [1] came to 71%; in assay [3] it was 60%; in assay [4], 49%. Also, in assay [2], the IC50 amounted to 0.012 µg/mL (≈ 0.0281 µM).

In the case of `CCNc1cccnc1N1CCN(C(=O)c2ccc(C(=O)NC(C)(C)CO)cn2)CC1`, the inhibition in assay [1] came to 72%; in assay [3] it was 56%; in assay [4] it was 32%. The same molecule yielded an IC50 in assay [2] of 0.068 µg/mL (≈ 0.159 µM).

With `COCCNC(=O)c1ccc(C(=O)N2CCN(c3ncccc3NCC(C)C)CC2)nc1`, the figures for the inhibition in assay [1], in assay [3] and in assay [4] were 85%, 70% and 52%, respectively. In assay [2], this molecule came in with a half-maximal inhibitory concentration (IC50) of 0.007 µg/mL (≈ 0.0159 µM).

With `CCNc1cccnc1N1CCN(C(=O)c2ccc(C(=O)NCc3ccccn3)cn2)CC1`, the inhibition in assay [1] was 70%; in assay [3] it was 56%; in assay [4], 19%. Also, the IC50 in assay [2] turned out to be 0.116 µg/mL (≈ 0.26 µM).

For the molecule `CC(C)CNc1cccnc1N1CCN(C(=O)c2ccc(C(=O)NC3CC3)cn2)CC1`, the inhibition stood at 87% in assay [1], 71% in assay [3] and 60% in assay [4]. In assay [2], the IC50 is 0.002 µg/mL (≈ 0.00473 µM).

As for `Cc1cc(NC(=O)c2ccc(C(=O)N3CCN(c4ncccc4NC(C)C)CC3)nc2)no1`, the inhibition in assay [1] was determined as 72%; in assay [3], 50%; in assay [4] it was 25%. In addition, in assay [2], the concentration for half-maximal inhibition (IC50) amounted to 0.11 µg/mL (≈ 0.245 µM).

On to `CC(C)NC(=O)c1ccc(C(=O)N2CCN(c3ncccc3N)CC2)nc1`, for which the inhibition turned out to be 79% in assay [1], 62% in assay [3] and 43% in assay [4]. This molecule also returned an IC50 in assay [2] of 0.023 µg/mL (≈ 0.0624 µM).

`Nc1cccnc1N1CCN(C(=O)c2ccc(C(=O)NCc3ccccn3)cn2)CC1`: the inhibition turned out to be 72% in assay [1], 54% in assay [3] and 22% in assay [4]. In assay [2], this molecule registered an IC50 of 0.106 µg/mL (≈ 0.254 µM).

As to `CC(C)Nc1cccnc1N1CCN(C(=O)c2ccc(C(=O)NC3CCCC3)cn2)CC1`, the inhibition turned out to be 75% in assay [1], 65% in assay [3] and 39% in assay [4]. The IC50 in assay [2] stood at 0.029 µg/mL (≈ 0.0664 µM).

Turning to `CC(C)CNc1cccnc1N1CCN(C(=O)c2ccc(C(=O)Nc3ncccc3O)cn2)CC1`, the inhibition is 71% in assay [1], 46% in assay [3] and 13% in assay [4]. This molecule had a concentration for half-maximal inhibition (IC50) in assay [2] of 0.17 µg/mL (≈ 0.357 µM).

As for `CC(C)CNc1cccnc1N1CCN(C(=O)c2ccc(C(=O)NC(C)C)cn2)CC1`, the values for the inhibition in assay [1], in assay [3] and in assay [4] were 90%, 66% and 58%, respectively. This molecule gave an IC50 in assay [2] of 0.005 µg/mL (≈ 0.0118 µM).

On to `CC(C)(CO)NC(=O)c1ccc(C(=O)N2CCN(c3ncccc3N)CC2)nc1`, for which the inhibition in assay [1] was 70%; in assay [3] it was 62%; in assay [4] it was 38%. This molecule also returned an IC50 in assay [2] of 0.038 µg/mL (≈ 0.0954 µM).

As for `CCNc1cccnc1N1CCN(C(=O)c2ccc(C(=O)NCCOC)cn2)CC1`, the results for the inhibition in assay [1], in assay [3] and in assay [4] were 75%, 57% and 36%, respectively. The molecule further displayed a half-inhibitory concentration (IC50) in assay [2] of 0.049 µg/mL (≈ 0.119 µM).

With `Nc1cccnc1N1CCN(C(=O)c2ccc(C(=O)NCCO)cn2)CC1`, the inhibition in assay [1] amounted to 74%; in assay [3], 67%; in assay [4], 54%. In addition, the half-maximal inhibitory concentration (IC50) in assay [2] is 0.003 µg/mL (≈ 0.0081 µM).

For the molecule `CC(C)Nc1cccnc1N1CCN(C(=O)c2ccc(C(=O)NCCO)cn2)CC1`, the inhibition in assay [1] was determined as 54%; in assay [3] it was 51%; in assay [4], 30%. Also, the IC50 in assay [2] was 0.261 µg/mL (≈ 0.633 µM).

Consider `CCNc1cccnc1N1CCN(C(=O)c2ccc(C(=O)NCCN3CCOCC3)cn2)CC1`, for which the inhibition stood at 66% in assay [1], 52% in assay [3] and 30% in assay [4]. Besides, the half-inhibitory concentration (IC50) in assay [2] stood at 0.109 µg/mL (≈ 0.233 µM).

`COCCCNC(=O)c1ccc(C(=O)N2CCN(c3ncccc3NCC(C)C)CC2)nc1`: the inhibition is 72% in assay [1], 51% in assay [3] and 20% in assay [4]. In addition, the IC50 in assay [2] is 0.123 µg/mL (≈ 0.271 µM).
